Patent US10131648B2, “Substituted benzothiophenyl derivatives as GPR40 agonists for the treatment of type II diabetes” (Janssen Pharmaceutica NV, priority 2014, dated 2018)

What follows are compounds tested against human GPR40 (Homo sapiens (Human), UniProt O14842) (assay: GPR40 Calcium Flux Assay). Conditions: transfected HEK293 cells stably expressing human GPR40; Ca2+ mobilization; mean data; read-out: hGPR40 Ca^2+ Assay EC50.
Type: cell-based
Procedure: Compounds were tested in a calcium flux assay using transfected HEK293 cells stably expressing either human GPR40 or rat GPR40. Human GPR40 expressing cells were cultured in DMEM-High Glucose media supplemented with 10% fetal bovine serum, 1×L-Glutamine, 1×Penicillin/Streptomycin and 500 μg/mL G418. Rat GPR40 expressing cells were cultured in DMEM-High Glucose media supplemented with 10% fetal bovine serum and 1 μg/mL puromycin. Cells were plated into poly-D-lysine coated 384-well plates and cultured overnight in a 37° C. humidified tissue culture incubator under 5% CO2/[…] atmosphere. On the day of the experiment, the culture media was replaced with assay buffer (HBSS, 20 mM HEPES, 0.1% BSA) and the cells incubated at 37° C. for 1 h. Calcium-sensitive fluorescent dye (Fluo 8 No-Wash Calcium Dye, ABD Bioquest) was then added and the cells incubated for another 30 min at 37° C. followed by 15 min at room temperature while protected from the light. The cell plate and a plate of diluted compounds of Formula (I) were loaded into a fluorescent plate reader that added compounds onto the cells while measuring the fluorescence intensity of each well. The plate reader recorded fluorescence intensity at 1 second intervals for 8 min and provided the data for analysis in an Excel format. EC50 values were calculated using Prism (GraphPad) software.

Chain of human GPR40 (O14842 whole entry): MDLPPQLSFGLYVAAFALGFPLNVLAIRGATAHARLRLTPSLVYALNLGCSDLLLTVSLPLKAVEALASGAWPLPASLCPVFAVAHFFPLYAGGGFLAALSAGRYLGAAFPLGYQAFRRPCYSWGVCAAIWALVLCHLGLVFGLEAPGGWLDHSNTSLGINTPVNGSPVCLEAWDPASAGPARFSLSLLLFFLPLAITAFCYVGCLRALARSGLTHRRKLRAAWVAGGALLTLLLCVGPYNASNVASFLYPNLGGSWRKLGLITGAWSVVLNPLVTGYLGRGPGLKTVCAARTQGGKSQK

In order of rising EC50:
1. CC#C[C@@H](CC(=O)O)c1ccc(OCc2ccc3scc(-c4ccc(OC5CCOCC5)cc4C)c3c2)cc1 [Cpd 15, (3S)-3-(4-((3-(2-Methyl-4-((tetrahydro-2H-pyran-4-yl)oxy)phenyl)benzo[b]thiophen-5-yl)methoxy)phenyl)hex-4-ynoic acid]  2 nM
2. CC#C[C@@H](CC(=O)O)c1ccc(OCc2ccc3scc(-c4ccc(OCCCS(C)(=O)=O)cc4C)c3c2)cc1 [Cpd 4, (3S)-3-[4-[[3-[2-Methyl-4-(3-methylsulfonylpropoxy)phenyl]benzo[b]thiophen-5-yl]methoxy]phenyl]hex-4-ynoic acid]  3 nM
3. CC#C[C@@H](CC(=O)O)c1ccc(OCc2ccc3scc(-c4ccc(OCC5(O)CCS(=O)(=O)CC5)cc4C)c3c2)cc1 [Cpd 3, (3S)-3-[4-[[3-[4-[(4-Hydroxy-1,1-dioxo-thian-4-yl)methoxy]-2-methyl-phenyl]benzo[b]thiophen-5-yl]methoxy]phenyl]hex-4-ynoic acid]  5 nM
4. CC#C[C@@H](CC(=O)O)c1ccc(OCc2ccc3scc(-c4ccccc4Br)c3c2)cc1 [Cpd 20, (3S)-3-(4-((3-(2-Bromophenyl)benzo[b]thiophen-5-yl)methoxy)phenyl)hex-4-ynoic acid]  5 nM
5. CC#C[C@@H](CC(=O)O)c1ccc(OCc2ccc3scc(-c4ccc(OCC5CCS(=O)(=O)CC5)cc4C)c3c2)cc1 [Cpd 17, (3S)-3-(4-((3-(4-((1,1-Dioxidotetrahydro-2H-thiopyran-4-yl)methoxy)-2-methylphenyl)benzo[b]thiophen-5-yl)methoxy)phenyl)hex-4-ynoic acid]  6 nM
6. Cc1ccccc1-c1csc2ccc(COc3ccc(C4(CC(=O)O)CC(=O)C4)cc3)cc12 [Cpd 30, 2-(3-Oxo-1-(4-((3-(2-methylphenyl)benzo[b]thiophen-5-yl)methoxy)phenyl)cyclobutyl)acetic acid]  6 nM
7. Cc1ccccc1-c1csc2ccc(COc3ccc(CCC(=O)O)cc3)cc12 [Cpd 1, 3-[4-[[3-(2-Methylphenyl)benzo[b]thiophen-5-yl]methoxy]phenyl]propanoic acid]  7 nM
8. CC#C[C@@H](CC(=O)O)c1ccc(OCc2ccc3scc(-c4ccc(O)cc4C)c3c2)cc1 [Cpd 7, (3S)-3-[4-[[3-(4-Hydroxy-2-methyl-phenyl)benzo[b]thiophen-5-yl]methoxy]phenyl]hex-4-ynoic acid]  7 nM
9. CC#C[C@@H](CC(=O)O)c1ccc(OCc2ccc3scc(-c4ccc(OCC(O)CO)cc4C)c3c2)cc1 (stereo partly drawn) [Cpd 13, (3S)-3-(4-((3-(4-(2,3-Dihydroxypropoxy)-2-methylphenyl)benzo[b]thiophen-5-yl)methoxy)phenyl)hex-4-ynoic acid]  7 nM
10. CC#C[C@@H](CC(=O)O)c1ccc(OCc2ccc3scc(-c4ccccc4Cl)c3c2)cc1 [Cpd 19, (3S)-3-(4-((3-(2-Chlorophenyl)benzo[b]thiophen-5-yl)methoxy)phenyl)hex-4-ynoic acid]  8 nM
11. CC#C[C@@H](CC(=O)O)c1ccc(OCc2ccc3scc(-c4ccccc4C(F)(F)F)c3c2)cc1 [Cpd 21, (3S)-3-(4-((3-(2-(Trifluoromethyl)phenyl)benzo[b]thiophen-5-yl)methoxy)phenyl)hex-4-ynoic acid]  8 nM
12. CC#C[C@@H](CC(=O)O)c1ccc(OCc2ccc3scc(-c4cccnc4C)c3c2)cc1 [Cpd 22, (3S)-3-(4-((3-(2-Methylpyridin-3-yl)benzo[b]thiophen-5-yl)methoxy)phenyl)hex-4-ynoic acid]  8 nM
13. CC#C[C@@H](CC(=O)O)c1ccc(OCc2ccc3scc(-c4ccc(OCCC(C)(C)O)cc4C)c3c2)cc1 [Cpd 12, (3S)-3-(4-((3-(4-(3-Hydroxy-3-methylbutoxy)-2-methylphenyl)benzo[b]thiophen-5-yl)methoxy)phenyl)hex-4-ynoic acid]  9 nM
14. CC#C[C@@H](CC(=O)O)c1ccc(OCc2ccc3scc(-c4ccc(OCC5(C)COC5)cc4C)c3c2)cc1 [Cpd 14, (3S)-3-(4-((3-(2-Methyl-4-((3-methyloxetan-3-yl)methoxy)phenyl)benzo[b]thiophen-5-yl)methoxy)phenyl)hex-4-ynoic acid]  9 nM
15. CC#C[C@@H](CC(=O)O)c1ccc(COc2ccc3scc(-c4ccc(OCCCS(C)(=O)=O)cc4C)c3c2)cc1 [Cpd 24, (3S)-3-(4-(((3-(2-Methyl-4-(3-(methylsulfonyl)propoxy)phenyl)benzo[b]thiophen-5-yl)oxy)methyl)phenyl)hex-4-ynoic acid]  9 nM
16. CC#C[C@@H](CC(=O)O)c1ccc(COc2ccc3scc(-c4ccccc4C)c3c2)cc1 [Cpd 23, (3S)-3-(4-(((3-(2-Methylphenyl)benzo[b]thiophen-5-yl)oxy)methyl)phenyl)hex-4-ynoic acid]  10 nM
17. CC#C[C@@H](CC(=O)O)c1ccc(OCc2ccc3scc(-c4ccc(OCC5(C)CS(=O)(=O)C5)cc4C)c3c2)cc1 [Cpd 18, (3S)-3-(4-((3-(2-Methyl-4-((3-methyl-1,1-dioxidothietan-3-yl)methoxy)phenyl)benzo[b]thiophen-5-yl)methoxy)phenyl)hex-4-ynoic acid]  11 nM
18. Cc1cc(C2=CCS(=O)(=O)CC2)ccc1-c1csc2ccc(COc3ccc(C4(CC(=O)O)CC(=O)C4)cc3)cc12 [Cpd 28, 2-(1-(4-((3-(4-(1,1-Dioxido-3,6-dihydro-2H-thiopyran-4-yl)-2-methylphenyl)benzo[b]thiophen-5-yl)methoxy)phenyl)-3-oxocyclobutyl)acetic acid]  12 nM
19. CC#C[C@@H](CC(=O)O)c1ccc(OCc2ccc3scc(-c4ccc(C5=CCS(=O)(=O)CC5)cc4C)c3c2)cc1 [Cpd 6, (3S)-3-[4-[[3-[4-(1,1-Dioxo-3,6-dihydro-2H-thiopyran-4-yl)-2-methyl-phenyl]benzo[b]thiophen-5-yl]methoxy]phenyl]hex-4-ynoic acid]  15 nM
20. CC#C[C@@H](CC(=O)O)c1ccc(OCc2ccc3scc(-c4ccc(OCCC5(O)CC5)cc4C)c3c2)cc1 [Cpd 11, (3S)-3-(4-((3-(4-(2-(1-Hydroxycyclopropyl)ethoxy)-2-methylphenyl)benzo[b]thiophen-5-yl)methoxy)phenyl)hex-4-ynoic acid]  16 nM
21. CC#C[C@@H](CC(=O)O)c1ccc(OCc2ccc3sc(C)c(-c4ccc(OC5CCS(=O)(=O)CC5)cc4C)c3c2)cc1 [Cpd 9, (3S)-3-[4-[[3-[4-(1,1-Dioxothian-4-yl)oxy-2-methyl-phenyl]-2-methyl-benzo[b]thiophen-5-yl]methoxy]phenyl]hex-4-ynoic acid]  17 nM
22. CC#C[C@@H](CC(=O)O)c1ccc(COc2ccc3scc(-c4ccc(C5CCS(=O)(=O)CC5)cc4C)c3c2)cc1 [Cpd 26, (3S)-3-(4-(((3-(4-(1,1-Dioxidotetrahydro-2H-thiopyran-4-yl)-2-methylphenyl)benzo[b]thiophen-5-yl)oxy)methyl)phenyl)hex-4-ynoic acid]  18 nM
23. CC#C[C@@H](CC(=O)O)c1ccc(OCc2ccc3scc(-c4ccc(C5CCS(=O)(=O)CC5)cc4C)c3c2)cc1 [Cpd 8, (3S)-3-[4-[[3-[4-(1,1-Dioxothian-4-yl)-2-methyl-phenyl]benzo[b]thiophen-5-yl]methoxy]phenyl]hex-4-ynoic acid]  20 nM
24. CC#C[C@@H](CC(=O)O)c1ccc(COc2ccc3scc(-c4c(C)cccc4C)c3c2)cc1 [Cpd 27, (3S)-3-(4-(((3-(2,6-Dimethylphenyl)benzo[b]thiophen-5-yl)oxy)methyl)phenyl)hex-4-ynoic acid]  20 nM
25. CC#C[C@@H](CC(=O)O)c1ccc(OCc2ccc3scc(-c4ccc(C(=O)N5CCS(=O)(=O)CC5)cc4C)c3c2)cc1 [Cpd 5, (3S)-3-[4-[[3-[4-(1,1-Dioxo-1,4-thiazinane-4-carbonyl)-2-methyl-phenyl]benzo[b]thiophen-5-yl]methoxy]phenyl]hex-4-ynoic acid]  23 nM
26. CC#C[C@@H](CC(=O)O)c1ccc(COc2ccc3scc(-c4ccc(C5=CCS(=O)(=O)CC5)cc4C)c3c2)cc1 [Cpd 25, (3S)-3-(4-(((3-(4-(1,1-Dioxido-3,6-dihydro-2H-thiopyran-4-yl)-2-methylphenyl)benzo[b]thiophen-5-yl)oxy)methyl)phenyl)hex-4-ynoic acid]  24 nM
27. Cc1cc(C2CCS(=O)(=O)CC2)ccc1-c1csc2ccc(COc3ccc(C4(CC(=O)O)CC(=O)C4)cc3)cc12 [Cpd 29, 2-(1-(4-((3-(4-(1,1-Dioxidotetrahydro-2H-thiopyran-4-yl)-2-methylphenyl)benzo[b]thiophen-5-yl)methoxy)phenyl)-3-oxocyclobutyl)acetic acid]  34 nM
28. CCOCCOc1ccc(-c2csc3ccc(COc4ccc(C5(CC(=O)O)CC(=O)C5)cc4)cc23)c(C)c1 [Cpd 32, 2-(1-(4-((3-(4-(2-Ethoxyethoxy)-2-methylphenyl)benzo[b]thiophen-5-yl)methoxy)phenyl)-3-oxocyclobutyl)acetic acid]  36 nM
29. CC#C[C@@H](CC(=O)O)c1ccc(OCc2ccc3scc(-c4c(C)cccc4C)c3c2)cc1 [Cpd 10, (3S)-3-[4-[[3-(2,6-Dimethylphenyl)benzo[b]thiophen-5-yl]methoxy]phenyl]hex-4-ynoic acid]  41 nM
30. Cc1ccccc1-c1csc2ccc(COc3ccc([C@]4(CC(=O)O)C[C@@H](O)C4)cc3)cc12 [Cpd 31]  48 nM
